Test results: PMC12973313 (Chemical Science, 2026)
Where “and” joins values, the source holds several entries; their conditions need not be identical. Equal values may be shown once. Read-outs that look alike come from different tables or passages of the source.

Tests used:
[1] = set-up: method as in PMID 29633393; settings: D2O 5% EtOH, 5.56 mM, 298 K; cited from earlier work
[2] = set-up: method as in PMID 29633393; settings: equal K/dimerization model, DMSO-d6 0.5% H2O; cited from earlier work
[3] = H2O 5% EtOH, 5.56 mM; cited from earlier work
[4] = H2O 5% EtOH, 5.56 mM; cited from earlier work; remark: listed apart in the source
[5] = Plasma protein binding, equilibrium dialysis; type: in vitro ADME, human
Experimental: This allows an assessment of the free drug concentration available to distribute into the tissues and interact with the target. The extent to which a compound binds to the constituents of blood plasma can influence drug distribution. […] page 10: In vitro Absorption, Distribution and Metabolism studies General note: These studies were performed by Contract Research Organisation (CRO) Pharmaron. The methodology provided within the ESI is published within the express permission of this organisation. The percentage of a compound recovered during the […] limitations such as unintended potential non-specific binding events to experimental equipment, solubility issues, etc. Protein Binding measurements in human plasma by using equilibrium dialysis: The fraction unbound in human plasma (P-KB, Ltd People's hospital of Shandong) was measured using 96-well Equilibrium Dialysis Plate (HTDialysis LLC, Gales Ferry, CT). Human plasma containing 5 μM test compound was dialysed against dialysis buffer (PBS, pH 7.4) with initial samples taken to allow for assessment of plasma stability and recovery before the plate was incubated for 6 hours at 37°C at 5% CO2. Samples were removed at 6 hours, and all samples were matrix matched and quenched with acetonitrile containing internal standard. Samples were centrifuged at 3,220g for 30 minutes to precipitate protein and enable sampling of supernatant prior to appropriate dilution for liquid chromatography mass-spectrometry (LC-MS/MS) analysis. Samples were analysed using a Shimadzu Nexera LC Binary Gradient LC-30AD (Shimadzu Inc, Kyoto), coupled to a Sciex 6500+ (AB Inc., Illinois). Separation was achieved using a XSelect HSS T3 (2.5μm, 2.1 x 50 mm) (Waters Ltd., Wilmslow) column at a temperature of 40°C and a binary mobile phase gradient at a flow rate of 0.8 mL/min. Initial LC conditions comprised of […] was ramped to 98% B at 0.5 min, held for 0.4 min and then immediately returned to initial conditions. Sample analysis was by electrospray ionisation in combined with multiple reaction monitoring in positive ionisation mode. The ionisation voltage was +5500 V. Kinetic Solubility Determination in PBS pH 7.4: The stock solutions of test and control compounds were prepared in DMSO at 10 mM. From […] These solutions were then shaken at 1100 rpm for 2 hours at 25°C. Following incubation, the samples were filtered using a vacuum manifold. The filtrate was analysed and quantified against a standard of known concentration using liquid chromatography mass- spectrometry (LC-MS/MS). Samples were analysed using a Shimadzu Nexera LC Binary Gradient LC-30AD (Shimadzu Inc, Kyoto), coupled to a Sciex 4500 mass spectrometer (AB Inc., Illinois). Separation of […] Wilmslow) at a temperature of 40°C and a binary mobile phase gradient at a flow rate of 0.8 mL/min. […] This was ramped to 98% solvent B at 0.5 minutes, held for 0.4 minutes and then immediately returned to initial conditions. Sample analysis was by electrospray ionisation combined with multiple reaction monitoring in positive ion mode. The ionspray voltage was […]. 10

[6] = Metabolic stability in liver microsomes; type: in vitro ADME, mouse
Experimental: (§1) Following this, the metabolic stability of 9 was determined against mouse, rat, and human liver microsomes. […] Within this assay the stability of the intact parent compound is monitored with respect to time, during incubation at 37 °C in the presence and absence of the co-factor NADPH – required for cytochrome p450 activity.
(§2) Metabolic Stability in Rat, Mouse and Human Liver Microsomes:
(§3) The metabolic stability of compounds at a concentration of 1 µM, in rat, mouse and human liver microsomes (BD Gentest, Franklin Lakes NJ) was measured following incubation with […]
(§4) (NADPH) at 37 °C. Aliquots of each incubation were removed at 0.5, 5, 15, 30 and 60 minutes. The reaction was stopped by the addition of cold acetonitrile containing analytical […]
(§5) Samples were then centrifuged at 3,220 g for 40 minutes. The supernatant was aliquoted and added to ultra-pure H2O in a 1:1 ratio in preparation for LC-MS/MS analysis.
(§6) Incubations were conducted in duplicate; control incubations (substituting PBS for NADPH) were conducted simultaneously.
(§7) Samples were analysed using a Shimadzu Shimadzu Nexera LC Binary Gradient LC-30AD (Shimadzu Inc, Kyoto), coupled to a Sciex 5500 mass spectrometer (AB Inc., Illinois) for rat and mouse microsomes and a Sciex 6500+ for human microsomes. Separation achieved using an XSelect HSS T3 column (2.5µm, 50 x 2.1 mm) (Waters Ltd., Wilmslow) at a temperature of 40°C and a binary mobile phase gradient at a flow rate of 0.7 mL/min. Initial […]
(§8) (0.1% formic acid in acetonitrile).
(§9) 0.5 minutes and then immediately returned to initial conditions. Sample analysis was by electrospray ionisation combined with multiple reaction monitoring in positive ion mode.
(§10) The ionspray voltage was 5500V.
(§11) Bi-directional Permeability in Caco-2 Cell Line: […]

[7] = Metabolic stability in liver microsomes; type: in vitro ADME, rat
Experimental: as §1, §2, §3, §4, §5, §6, §7, §8, §9, §10, §11

O=C(O)CNC(=O)Nc1ccc(C(F)(F)F)cc1 [SSA 1]
Q NMR (%) SSA anion [1]: 68 (ref. [30]) %
Kdim (M^-1) [2]: 41 (±1.3%)[30] M^−1
Zeta potential (mV) [3]: -37 mV and −37 (ref. [30]) mV
dH (nm), DLS peak maxima [4]: 220 nm and 220 (ref. [30]) nm

O=C(Nc1ccc(C(F)(F)F)cc1)N[C@H](Cc1ccccc1)C(=O)O [SSA 9]
% Bound ([5]; human plasma, 5 µM, 6 hours, 37 °C): 99.73%
% Unbound ([5]; human plasma, 6 hours): 0.3%
% Stability / % Remaining at 6 hr ([5]; human plasma, 6 hr): 98.85%
% Recovery ([5]; human plasma, after 6 hours): 98.3%
recovery at 6 h, 5 µM ([5]; human, human plasma, pH 7.4, human plasma, after 6 hours): 98.3%
remaining at 6 h, 5 µM ([5]; human, plasma, human plasma, 6 hr, read-out: % Stability / % Remaining at 6 hr): 98.9%
fraction unbound at 6 h, 5 µM ([5]; human, plasma, pH 7.4, human plasma, 5 µM, 6 hours, 37 °C, read-out: % Bound (converted)): 0.003
fraction unbound at 6 h, 5 µM ([5]; human, plasma, pH 7.4, human plasma, 6 hours, read-out: % Unbound): 0.0027
microsomal CLint at 1 µM ([6]; liver microsomes, mouse microsomes): < 7.5 µL/min/mg
Hepatic Extraction Ratio (ER) ([6]; mouse): < 0.26
Predicted Hepatic CLH ([6]; mouse): < 23.07 mL/min/kg
In vitro t1/2 ([6]; mouse, 1 µM, 0.5 mg protein/mL): > 3.0797 h
Remaining percentage (%) 0.5 min ([6]; mouse, +Cofactors): 100.00%
Remaining percentage (%) 5 min ([6]; mouse, +Cofactors): 101.43%
Remaining percentage (%) 15 min ([6]; mouse, +Cofactors): 97.80%
Remaining percentage (%) 30 min ([6]; mouse, +Cofactors): 99.51%
Remaining percentage (%) 60 min ([6]; mouse, +Cofactors): 99.55%
Remaining percentage (%) 0.5 min ([6]; mouse, -Cofactors): 100.00%
Remaining percentage (%) 60 min ([6]; mouse, -Cofactors): 101.52%
half-life at 1 µM ([6]; mouse, liver microsomes, mouse, 1 µM, 0.5 mg protein/mL, read-out: In vitro t1/2): > 3.08 h
CLint scaled at 1 µM ([6]; mouse, liver microsomes, read-out: Scale-up CLint): < 31 mL/min/kg
microsomal CLint at 1 µM ([7]; liver microsomes, rat microsomes): < 7.5 µL/min/mg
Hepatic Extraction Ratio (ER) ([7]; rat): < 0.21
Predicted Hepatic CLH ([7]; rat): < 14.42 mL/min/kg
In vitro t1/2 ([7]; rat, 1 µM, 0.5 mg protein/mL): > 3.0797 h
Remaining percentage (%) 0.5 min ([7]; rat, +Cofactors): 100.00%
Remaining percentage (%) 5 min ([7]; rat, +Cofactors): 107.16%
Remaining percentage (%) 15 min ([7]; rat, +Cofactors): 104.62%
Remaining percentage (%) 30 min ([7]; rat, +Cofactors): 102.68%
Remaining percentage (%) 60 min ([7]; rat, +Cofactors): 102.41%
Remaining percentage (%) 0.5 min ([7]; rat, -Cofactors): 100.00%
Remaining percentage (%) 60 min ([7]; rat, -Cofactors): 107.67%
half-life at 1 µM ([7]; rat, liver microsomes, rat, 1 µM, 0.5 mg protein/mL, read-out: In vitro t1/2): > 3.08 h
CLint scaled at 1 µM ([7]; rat, liver microsomes, read-out: Scale-up CLint): < 18.3 mL/min/kg
